Laboratory results published in PubChem BioAssay (NCI).
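Each compound was tested at five concentrations against cells in 96-well plates for 48 hours. Here, GI50 denotes the concentration required for 50% inhibition of growth. At the TGI there is no net growth.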

Assays:
Test in all cases: NCI-60 cell line screen, 48 h
U251 CNS = tested on: U251 CNS
OVCAR-5 ovarian = tested on: OVCAR-5 ovarian
RPMI-8226 leukemia = tested on: RPMI-8226 leukemia
M14 melanoma = tested on: M14 melanoma
SNB-19 CNS = tested on: SNB-19 CNS
NCI/ADR-RES ovarian = tested on: NCI/ADR-RES ovarian
NCI-H23 lung = tested on: NCI-H23 lung
SNB-75 CNS = tested on: SNB-75 CNS
SF-268 CNS = tested on: SF-268 CNS
UACC-257 melanoma = tested on: UACC-257 melanoma

Structure (SMILES): O=S1SC(=S)C2C=CC=CC21 (stereo unspecified)
- TGI (U251 CNS): > 100 µM
- TGI (OVCAR-5 ovarian): > 100 µM
- TGI (RPMI-8226 leukemia): > 100 µM
- TGI (M14 melanoma): > 100 µM
- TGI (SNB-19 CNS): > 100 µM
- TGI (NCI/ADR-RES ovarian): > 100 µM
- TGI (NCI-H23 lung): > 100 µM
- TGI (SNB-75 CNS): > 100 µM
- TGI (SF-268 CNS): > 100 µM
- TGI (UACC-257 melanoma): > 100 µM

Structure (SMILES): Nc1ccc(-c2nn3c(COc4ccc(Cl)cc4)nnc3s2)cc1
- TGI (U251 CNS): > 100 µM
- TGI (OVCAR-5 ovarian): > 100 µM
- TGI (RPMI-8226 leukemia): > 100 µM
- TGI (M14 melanoma): > 100 µM
- TGI (SNB-19 CNS): > 100 µM
- TGI (NCI/ADR-RES ovarian): > 100 µM
- TGI (NCI-H23 lung): > 100 µM
- TGI (SNB-75 CNS): > 100 µM
- GI50 (SF-268 CNS): 46.8 µM
- TGI (SF-268 CNS): > 100 µM
- TGI (UACC-257 melanoma): > 100 µM

Structure (SMILES): CC1(C)CC(C#Cc2ccccc2)CC(C)(C)N1O
- TGI (U251 CNS): 64.6 µM
- TGI (OVCAR-5 ovarian): 44.2 µM
- TGI (RPMI-8226 leukemia): 69.1 µM
- TGI (M14 melanoma): 38.2 µM
- TGI (SNB-19 CNS): > 100 µM
- TGI (NCI/ADR-RES ovarian): 73.8 µM
- TGI (NCI-H23 lung): 35.2 µM
- TGI (SNB-75 CNS): 54.1 µM
- TGI (SF-268 CNS): 83.1 µM
- TGI (UACC-257 melanoma): 33 µM

Structure (SMILES): CC(=O)n1nc(-c2ccccc2)n(/N=C/c2ccc([N+](=O)[O-])o2)c1=O
- TGI (U251 CNS): 33.4 µM
- TGI (OVCAR-5 ovarian): 10.2 µM
- TGI (RPMI-8226 leukemia): 28.2 µM
- TGI (M14 melanoma): 4.08 µM
- TGI (SNB-19 CNS): 36.9 µM
- TGI (NCI/ADR-RES ovarian): 27.5 µM
- TGI (NCI-H23 lung): 14.3 µM
- TGI (SNB-75 CNS): 26.8 µM
- TGI (SF-268 CNS): 14.1 µM
- TGI (UACC-257 melanoma): 12.2 µM

Structure (SMILES): CCN(CCCl)c1cc(CN(C)C)cc(NC(=O)c2ccc(C(=O)Nc3cccc(CN(C)C)c3)cc2)c1
- TGI (U251 CNS): 0.667 µM
- TGI (OVCAR-5 ovarian): 93.2 µM
- TGI (RPMI-8226 leukemia): 8.73 µM
- TGI (M14 melanoma): 17.7 µM
- TGI (SNB-19 CNS): 1.34 µM
- TGI (NCI/ADR-RES ovarian): > 100 µM
- TGI (NCI-H23 lung): 11.2 µM
- TGI (SNB-75 CNS): 3.18 µM
- TGI (SF-268 CNS): 63.1 µM
- TGI (UACC-257 melanoma): 3.67 µM

Structure (SMILES): O=C(CC(=O)Nc1ccccc1)NNC(c1cc(N=Nc2ccc(Br)cc2)ccc1O)P(O)O (stereo unspecified)
- TGI (U251 CNS): > 10 µM
- TGI (OVCAR-5 ovarian): > 10 µM
- TGI (RPMI-8226 leukemia): > 10 µM
- TGI (M14 melanoma): 3.84 µM
- TGI (SNB-19 CNS): > 10 µM
- TGI (NCI/ADR-RES ovarian): > 10 µM
- TGI (NCI-H23 lung): > 10 µM
- TGI (SNB-75 CNS): > 10 µM
- TGI (SF-268 CNS): > 10 µM
- TGI (UACC-257 melanoma): > 10 µM

Structure (SMILES): Nc1nc(Nc2ccccc2)sc1C(=O)c1ccco1
- TGI (U251 CNS): > 100 µM
- TGI (OVCAR-5 ovarian): 71.5 µM
- TGI (RPMI-8226 leukemia): 42.2 µM
- TGI (M14 melanoma): 36.9 µM
- TGI (SNB-19 CNS): 50.9 µM
- TGI (NCI/ADR-RES ovarian): 65.5 µM
- TGI (NCI-H23 lung): 35.9 µM
- TGI (SNB-75 CNS): 37.7 µM
- TGI (SF-268 CNS): > 100 µM
- TGI (UACC-257 melanoma): 68.9 µM

Structure (SMILES): COc1cc2[nH]c(-c3ccccc3)cc(=O)c2c(OC)c1OC
- TGI (U251 CNS): > 100 µM
- TGI (OVCAR-5 ovarian): > 100 µM
- TGI (RPMI-8226 leukemia): > 100 µM
- TGI (M14 melanoma): > 100 µM
- TGI (SNB-19 CNS): > 100 µM
- TGI (NCI/ADR-RES ovarian): > 100 µM
- TGI (NCI-H23 lung): > 100 µM
- TGI (SNB-75 CNS): > 100 µM
- TGI (SF-268 CNS): > 100 µM
- TGI (UACC-257 melanoma): > 100 µM

Structure (SMILES): CCN(CC)CCO/N=C1\CC[C@H]2[C@@H]3CCc4cc(OC)ccc4[C@H]3CC[C@]12C
- TGI (U251 CNS): 11.6 µM
- TGI (OVCAR-5 ovarian): 12.4 µM
- TGI (RPMI-8226 leukemia): 4.26 µM
- TGI (M14 melanoma): 1.82 µM
- TGI (SNB-19 CNS): 25 µM
- TGI (NCI/ADR-RES ovarian): 23.9 µM
- TGI (NCI-H23 lung): 18.6 µM
- TGI (SNB-75 CNS): 9.25 µM
- TGI (SF-268 CNS): 7.05 µM
- TGI (UACC-257 melanoma): 2.54 µM

Structure (SMILES): CC(C)=CCC[C@@H](C)C1=C(O)C(N)=C(C)C(=O)C1=O
- TGI (U251 CNS): > 100 µM
- TGI (OVCAR-5 ovarian): > 100 µM
- TGI (RPMI-8226 leukemia): 98.6 µM
- TGI (M14 melanoma): > 73.2 µM
- TGI (SNB-19 CNS): > 100 µM
- TGI (NCI/ADR-RES ovarian): 24.7 µM
- TGI (NCI-H23 lung): > 100 µM
- TGI (SNB-75 CNS): > 100 µM
- TGI (SF-268 CNS): > 100 µM
- TGI (UACC-257 melanoma): > 100 µM

Structure (SMILES): C[n+]1c(/C=C/c2ccc(O)c3ncccc23)[se]c2ccccc21
- TGI (U251 CNS): 16.3 µM
- TGI (OVCAR-5 ovarian): 40.4 µM
- TGI (RPMI-8226 leukemia): 40.5 µM
- TGI (M14 melanoma): 17.8 µM
- TGI (SNB-19 CNS): 51.3 µM
- TGI (NCI/ADR-RES ovarian): 28.7 µM
- TGI (NCI-H23 lung): 37.6 µM
- TGI (SNB-75 CNS): 34.8 µM
- TGI (SF-268 CNS): 27.6 µM
- TGI (UACC-257 melanoma): 11.1 µM

Structure (SMILES): O=C(OCC1OC(n2nc(Cn3nnc(-c4cccnc4)n3)n(-c3cccc4ccccc34)c2=S)C(OC(=O)c2ccccc2)C1OC(=O)c1ccccc1)c1ccccc1 (stereo unspecified)
- TGI (U251 CNS): > 100 µM
- TGI (OVCAR-5 ovarian): > 100 µM
- TGI (RPMI-8226 leukemia): > 100 µM
- TGI (M14 melanoma): > 100 µM
- TGI (SNB-19 CNS): > 100 µM
- TGI (NCI/ADR-RES ovarian): > 100 µM
- TGI (NCI-H23 lung): > 100 µM
- TGI (SNB-75 CNS): > 100 µM
- TGI (SF-268 CNS): > 100 µM
- TGI (UACC-257 melanoma): > 100 µM

Structure (SMILES): Cc1cc(O)c(-c2cc(O)c(C)cc2O)cc1O
- TGI (U251 CNS): 30.3 µM
- TGI (OVCAR-5 ovarian): 32.9 µM
- TGI (RPMI-8226 leukemia): 4.07 µM
- TGI (M14 melanoma): 22.9 µM
- TGI (SNB-19 CNS): 40.2 µM
- TGI (NCI/ADR-RES ovarian): 97.1 µM
- TGI (NCI-H23 lung): 38.9 µM
- TGI (SNB-75 CNS): 29 µM
- TGI (SF-268 CNS): 37.8 µM
- TGI (UACC-257 melanoma): 20.1 µM

Structure (SMILES): O=C(O)CN(CC(=O)O)C(C(=O)O)c1ccccc1 (stereo unspecified)
- TGI (U251 CNS): > 100 µM
- TGI (OVCAR-5 ovarian): > 100 µM
- TGI (RPMI-8226 leukemia): > 100 µM
- TGI (M14 melanoma): > 100 µM
- TGI (SNB-19 CNS): > 100 µM
- TGI (NCI/ADR-RES ovarian): > 100 µM
- TGI (NCI-H23 lung): > 100 µM
- TGI (SNB-75 CNS): > 100 µM
- TGI (SF-268 CNS): > 100 µM
- TGI (UACC-257 melanoma): > 100 µM

Structure (SMILES): COc1cc(C(O)c2ccc3c(c2)OCO3)cc(OC)c1OC (stereo unspecified)
- TGI (U251 CNS): > 100 µM
- TGI (OVCAR-5 ovarian): > 100 µM
- TGI (RPMI-8226 leukemia): > 100 µM
- TGI (M14 melanoma): > 100 µM
- TGI (SNB-19 CNS): > 100 µM
- TGI (NCI/ADR-RES ovarian): > 100 µM
- TGI (NCI-H23 lung): > 100 µM
- TGI (SNB-75 CNS): > 100 µM
- TGI (SF-268 CNS): > 100 µM
- TGI (UACC-257 melanoma): > 100 µM

Structure (SMILES): O=C1C=CC(=O)C(CNc2ccc(C(=O)OCc3ccccc3)cc2)=C1
- TGI (U251 CNS): 19.9 µM
- TGI (OVCAR-5 ovarian): 29.5 µM
- TGI (RPMI-8226 leukemia): > 21 µM
- TGI (M14 melanoma): 20.8 µM
- TGI (SNB-19 CNS): 26.5 µM
- TGI (NCI/ADR-RES ovarian): 23.5 µM
- TGI (NCI-H23 lung): 30.1 µM
- TGI (SNB-75 CNS): 18.4 µM
- TGI (SF-268 CNS): 21.8 µM
- TGI (UACC-257 melanoma): 25.2 µM

Structure (SMILES): CN(C)c1cccc2c1C(=O)C=CC21c2ccc(N(C)C)c3c(N(C)C)ccc(c23)C(c2ccccc2)C1c1ccccc1 (stereo unspecified)
- TGI (U251 CNS): 25.8 µM
- TGI (OVCAR-5 ovarian): 81.7 µM
- TGI (RPMI-8226 leukemia): 49.3 µM
- TGI (M14 melanoma): 31.1 µM
- TGI (SNB-19 CNS): 44.4 µM
- TGI (NCI/ADR-RES ovarian): 58.9 µM
- TGI (NCI-H23 lung): 75.3 µM
- TGI (SNB-75 CNS): 30.9 µM
- TGI (SF-268 CNS): 53.9 µM
- TGI (UACC-257 melanoma): 27.2 µM

Structure (SMILES): Clc1ccc(/C(=C\c2ccccc2)Cn2ccnc2)cc1
- TGI (U251 CNS): 31.2 µM
- TGI (OVCAR-5 ovarian): 63 µM
- TGI (RPMI-8226 leukemia): 73.7 µM
- TGI (M14 melanoma): 39.4 µM
- TGI (SNB-19 CNS): 49.4 µM
- TGI (NCI/ADR-RES ovarian): 38 µM
- TGI (NCI-H23 lung): > 100 µM
- TGI (SNB-75 CNS): 59.4 µM
- TGI (SF-268 CNS): 53.4 µM
- TGI (UACC-257 melanoma): 47.8 µM
